In ChEMBL document CHEMBL1201862, “PubChem BioAssay data set” (2004):
Calls of active or inactive are those of the source.

Key:
Phospholipase A2 = Phospholipase A2 (Homo sapiens, UniProt P04054); format: functional;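 also: confirmatory dose-response counterscreen on phospholipase A2, testing hits that came from an ultra-high-throughput screen for ATG4B inhibitors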
Cysteine protease ATG4B = biological target: T1, Cysteine protease ATG4B (Homo sapiens, UniProt Q9Y4P1); format: functional;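 also: Fluorescence-based dose-response confirmation assay measuring inhibition of ATG4B activity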
T1 sequence (Q9Y4P1 whole entry): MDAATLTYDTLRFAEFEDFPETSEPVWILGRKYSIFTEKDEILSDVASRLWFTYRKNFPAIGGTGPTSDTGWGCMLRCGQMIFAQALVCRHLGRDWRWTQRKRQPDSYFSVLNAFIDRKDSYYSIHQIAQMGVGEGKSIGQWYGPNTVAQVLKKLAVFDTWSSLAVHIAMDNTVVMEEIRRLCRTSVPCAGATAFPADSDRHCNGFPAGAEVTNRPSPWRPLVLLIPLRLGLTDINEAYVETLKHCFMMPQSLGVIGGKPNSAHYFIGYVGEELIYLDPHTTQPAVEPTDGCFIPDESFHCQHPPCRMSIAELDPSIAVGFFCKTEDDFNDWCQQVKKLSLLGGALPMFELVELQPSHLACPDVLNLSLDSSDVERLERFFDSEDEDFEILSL

[1] = biological target: 72 kDa type IV collagenase (Homo sapiens, UniProt P08253); test: Dose Response validation of uHTS RPN11 inhibitor hits using a MMP-2 Fluorescence assay.; format: functional
Prothrombin = Prothrombin (Bos taurus, UniProt P00735); test: thrombin inhibition, dose response, biochemical, fluorescence polarization, uHTS hits (AID 602369); format: functional
[2] = biological target: 26S proteasome non-ATPase regulatory subunit 14 (Homo sapiens, UniProt O00487); test: inhibition of proteasome subunit RPN11 – biochemical, fluorescence polarization, uHTS hits, confirmation (AID 602368); format: functional
A-375 [3] = test: A375 melanoma cell viability reduction, dose response, counter-screen for MITF modulator project, cherry-pick samples, set 2 (AID 540335); format: functional, cell-based; settings: Homo sapiens
A-375 [4] = test: MITF: Counter assay: A375 proliferation Measured in Cell-Based System Using Plate Reader - 2084-03_Inhibitor_Dose_DryPowder_Activity. [Related pubchem assays (depositor defined):AID488944]; format: functional; settings: Homo sapiens
cells [5] = format: functional, cell-based; settings: HEK-CNG
Galanin receptor type 3 = biological target: T2, Galanin receptor type 3 (Homo sapiens, UniProt O60755); test: Fluorescence-based cell-based primary high throughput dose response assay to identify antagonists of the Galanin Receptor 3 (GalR3).; format: functional
T2 sequence (O60755 whole entry): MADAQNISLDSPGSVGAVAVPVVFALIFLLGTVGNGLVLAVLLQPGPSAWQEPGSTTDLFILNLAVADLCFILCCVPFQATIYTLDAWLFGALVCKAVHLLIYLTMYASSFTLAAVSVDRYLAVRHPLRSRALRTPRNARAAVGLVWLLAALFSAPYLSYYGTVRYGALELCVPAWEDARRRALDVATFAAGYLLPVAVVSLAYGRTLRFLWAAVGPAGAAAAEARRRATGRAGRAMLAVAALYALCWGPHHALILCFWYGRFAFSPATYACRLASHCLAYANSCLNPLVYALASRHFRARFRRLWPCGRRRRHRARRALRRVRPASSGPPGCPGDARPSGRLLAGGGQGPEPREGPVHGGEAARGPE

[6] = inhibitors of clade B AD8 Env fusion, dose response, cell-based, cherry-pick (AID 652062); format: functional;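 also: luciferase signal from cell-cell fusion driven by HIV-1 clade B AD8 Env; potency is for inhibitors of fusion seen as a drop in luminescence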
[7] = ZM109 Env clade C HIV-1 fusion inhibitors, dose response, HeLa effector, CEM target cells, luciferase, cherry-pick (AID 652058); format: functional, cell-based
[8] = off-target signal loss in HeLa-CEM21 co-culture – HeLa F-luc CTL cells, cherry-picked, counter-screen for HIV-1 Env fusion inhibitor project, dose response (AID 652040); format: functional, cell-based;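 also: potency for signal decrease marking cytotoxic or nonspecific inhibition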
[9] = inhibitors of HIV Env-driven cell fusion, dose response, cherry-pick (AID 652057); format: functional, cell-based
[10] = biological target: T3, Sentrin-specific protease 1 (Homo sapiens, UniProt Q9P0U3); test: Dose response confirmation of small molecule inhibitors of the catalytic domain of the SUMO protease, SENP1 in a FRET assay.; format: functional; settings: read-out: IC50_Mean
T3 sequence (Q9P0U3 whole entry): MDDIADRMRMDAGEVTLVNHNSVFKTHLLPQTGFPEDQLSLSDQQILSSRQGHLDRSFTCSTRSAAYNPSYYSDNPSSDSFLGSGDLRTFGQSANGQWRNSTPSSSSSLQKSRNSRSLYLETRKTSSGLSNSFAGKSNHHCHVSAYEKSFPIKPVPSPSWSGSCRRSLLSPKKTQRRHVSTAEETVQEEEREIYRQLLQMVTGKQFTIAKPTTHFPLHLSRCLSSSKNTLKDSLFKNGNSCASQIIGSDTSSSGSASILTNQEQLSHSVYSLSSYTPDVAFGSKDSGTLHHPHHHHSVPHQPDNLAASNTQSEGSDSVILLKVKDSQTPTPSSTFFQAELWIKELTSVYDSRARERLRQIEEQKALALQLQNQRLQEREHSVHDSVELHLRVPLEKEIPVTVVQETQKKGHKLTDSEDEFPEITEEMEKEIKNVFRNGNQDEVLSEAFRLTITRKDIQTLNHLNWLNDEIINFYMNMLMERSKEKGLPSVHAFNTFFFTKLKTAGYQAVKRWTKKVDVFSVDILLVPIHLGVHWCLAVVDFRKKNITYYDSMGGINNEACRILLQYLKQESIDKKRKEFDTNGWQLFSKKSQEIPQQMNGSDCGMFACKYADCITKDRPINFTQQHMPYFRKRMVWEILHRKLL

[11] = biological target: T3, Sentrin-specific protease 1; test: potency of human SENP1 inhibitors, dose response, biochemical, kinetic FRET (AID 651697); format: functional; settings: read-out: IC50_Mean
[12] = microbe, parasite or virus in culture; format: functional; settings: Mycobacterium tuberculosis
[13] = biological target: T4, Endoribonuclease toxin MazF (Escherichia coli K-12, UniProt P0AE70); test: MazF toxin RNase activators, dose response, biochemical, fluorescence, single-stranded RNA substrate, uHTS hits (AID 588481); format: functional
T4 sequence (P0AE70 whole entry): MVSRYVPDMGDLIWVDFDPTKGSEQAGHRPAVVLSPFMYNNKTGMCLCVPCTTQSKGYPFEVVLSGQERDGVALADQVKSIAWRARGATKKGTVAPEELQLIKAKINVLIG

[14] = biological target: T4, Endoribonuclease toxin MazF; test: fluorescent RNA oligo signal without MazF, dose response, counter-screen for MazEF activator project, biochemical, fluorescence, single-stranded RNase substrate (AID 588502); format: functional
[15] = growth suppression of PTEN-null colon cells, dose response, cell-based, HCT116 PTEN knockout (AID 1047); format: functional;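 also: HCT116 colon tumor cells with PTEN knocked out; cells exposed to compound for 60 hours before readout; potency for loss of cell viability measured by luminescence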
[16] = growth suppression of beta-catenin-knockout colon cells, dose response, cell-based, HCT116, human colon tumor (AID 1045); format: functional;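 also: HCT116 colon tumor cells with beta catenin knocked out; cells exposed to compound for 60 hours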
[17] = Luminescence Cell-Based Dose Retest to Confirm Inhibitors of Cancer Stem Cells. [Related pubchem assays (depositor defined):AID2717, AID2721]; format: functional; settings: Homo sapiens
[18] = biological target: T5, Zinc finger protein mex-5 (Caenorhabditis elegans, UniProt Q9XUB2); test: MEX-5/TCR-2 RNA interaction inhibitors, dose response, biochemical, C. elegans, fluorescence polarization (AID 1960)
T5 sequence (Q9XUB2 whole entry): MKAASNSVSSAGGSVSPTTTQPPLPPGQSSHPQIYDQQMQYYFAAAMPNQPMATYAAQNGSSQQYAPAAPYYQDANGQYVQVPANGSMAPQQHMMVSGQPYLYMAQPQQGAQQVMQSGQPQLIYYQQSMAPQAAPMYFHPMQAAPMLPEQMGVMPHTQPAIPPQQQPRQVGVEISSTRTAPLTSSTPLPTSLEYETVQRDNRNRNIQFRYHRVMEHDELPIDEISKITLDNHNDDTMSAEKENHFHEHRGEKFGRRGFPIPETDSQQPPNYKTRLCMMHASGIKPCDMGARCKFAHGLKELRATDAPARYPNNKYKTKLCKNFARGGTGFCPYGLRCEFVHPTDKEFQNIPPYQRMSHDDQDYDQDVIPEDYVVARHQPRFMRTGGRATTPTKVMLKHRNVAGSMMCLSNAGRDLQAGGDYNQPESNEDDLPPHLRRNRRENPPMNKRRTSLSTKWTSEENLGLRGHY

[19] = biological target: T6, RNA-binding protein pos-1 (Caenorhabditis elegans, UniProt G5EF15); test: inhibitors of POS-1/mex-3 RNA binding, dose response, biochemical, fluorescence polarization (AID 1964);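 also: purified POS-1 fused to maltose binding protein made in E. coli; potency of compounds blocking POS-1 binding to fluorescent RNA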
T6 sequence (G5EF15 whole entry): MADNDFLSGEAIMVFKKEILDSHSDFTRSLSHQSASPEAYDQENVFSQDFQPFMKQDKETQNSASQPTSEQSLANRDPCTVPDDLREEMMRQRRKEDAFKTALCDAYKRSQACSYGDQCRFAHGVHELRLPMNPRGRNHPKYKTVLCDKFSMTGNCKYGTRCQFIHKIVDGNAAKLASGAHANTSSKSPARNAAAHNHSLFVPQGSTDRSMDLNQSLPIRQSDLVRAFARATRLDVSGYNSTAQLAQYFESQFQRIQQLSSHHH

BJ [20] = test: cytotoxicity toward BJ-TERT-LT-ST fibroblasts, dose response, cell-based, RAS-independent, luminescence (AID 1935); format: functional; settings: Homo sapiens;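 also: BJ fibroblasts immortalized with TERT plus LT and ST oncogenes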
[21] = cytotoxicity toward DRD oncogenic fibroblasts, dose response, cell-based, non-viral oncogenic, luminescence (AID 1934); format: functional; settings: Homo sapiens
BJ [22] = test: cytotoxicity toward BJ-TERT fibroblasts, dose response, cell-based, RAS-independent, luminescence (AID 1933); format: functional; settings: Homo sapiens
INS1 = test: beta cell apoptosis inhibitors, cytokine rescue, dose response, luminescence, retest (AID 449756); format: functional, cell-based; settings: Rattus norvegicus;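 also: cell death triggered by IL-1 beta plus TNF-alpha plus IFN-gamma mixture; protective hits raise ATP signal compared with cytokine alone wells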
BJ [23] = test: cells; format: functional, cell-based; settings: Homo sapiens
[24] = biological target: T7, Small ubiquitin-related modifier 1 (Homo sapiens, UniProt P63165); test: inhibitors of SUMO1 peptide binding, dose response, biochemical, fluorescence polarization, uHTS hits (AID 624382); format: functional; settings: read-out: IC50_Mean
[25] = biological target: T7, Small ubiquitin-related modifier 1; test: inhibitors of SUMO1 partner interactions, dose response, biochemical, FRET (AID 624383); format: functional; settings: read-out: IC50_Mean
cells [26] = format: functional

Phospholipase A2, sequence (P04054 whole entry): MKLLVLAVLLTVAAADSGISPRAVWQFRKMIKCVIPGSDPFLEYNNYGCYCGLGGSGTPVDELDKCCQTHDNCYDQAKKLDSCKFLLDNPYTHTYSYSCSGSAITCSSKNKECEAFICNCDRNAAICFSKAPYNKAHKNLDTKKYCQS
26S proteasome non-ATPase regulatory subunit 14, sequence (O00487 whole entry): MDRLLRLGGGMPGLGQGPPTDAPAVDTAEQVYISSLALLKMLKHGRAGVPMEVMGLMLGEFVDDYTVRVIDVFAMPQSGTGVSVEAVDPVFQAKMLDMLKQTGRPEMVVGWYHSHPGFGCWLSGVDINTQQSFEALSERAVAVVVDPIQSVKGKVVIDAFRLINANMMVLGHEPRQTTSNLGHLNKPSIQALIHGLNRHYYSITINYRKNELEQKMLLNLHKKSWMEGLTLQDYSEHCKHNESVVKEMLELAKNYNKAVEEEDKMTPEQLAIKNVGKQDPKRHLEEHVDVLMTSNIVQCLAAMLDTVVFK
72 kDa type IV collagenase, sequence (P08253 whole entry): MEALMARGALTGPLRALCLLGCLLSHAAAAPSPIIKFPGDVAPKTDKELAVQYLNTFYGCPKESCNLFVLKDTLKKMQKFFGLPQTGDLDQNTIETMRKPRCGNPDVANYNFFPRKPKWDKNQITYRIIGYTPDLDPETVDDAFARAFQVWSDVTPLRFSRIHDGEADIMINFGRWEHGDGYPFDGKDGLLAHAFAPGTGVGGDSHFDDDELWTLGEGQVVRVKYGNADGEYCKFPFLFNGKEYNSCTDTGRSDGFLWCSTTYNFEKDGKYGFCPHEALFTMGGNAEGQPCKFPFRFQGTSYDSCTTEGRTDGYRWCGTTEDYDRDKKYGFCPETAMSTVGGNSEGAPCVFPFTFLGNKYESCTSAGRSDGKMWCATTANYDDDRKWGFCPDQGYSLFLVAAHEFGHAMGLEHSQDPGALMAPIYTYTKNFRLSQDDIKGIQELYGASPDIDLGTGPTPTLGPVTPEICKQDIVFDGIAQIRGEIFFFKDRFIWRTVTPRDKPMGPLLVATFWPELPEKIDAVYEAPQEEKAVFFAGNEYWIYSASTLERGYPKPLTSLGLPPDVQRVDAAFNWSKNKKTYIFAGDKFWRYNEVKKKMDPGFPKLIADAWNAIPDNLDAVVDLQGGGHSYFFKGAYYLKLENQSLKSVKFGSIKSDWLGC
T7 sequence (P63165 whole entry): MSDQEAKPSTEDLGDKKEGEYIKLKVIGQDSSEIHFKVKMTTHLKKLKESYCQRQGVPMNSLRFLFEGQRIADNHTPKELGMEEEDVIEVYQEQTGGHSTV

Compound: Clc1ccccc1CN1CCN(c2ccccc2Cl)CC1
- IC50 (Phospholipase A2): 6.52 µM (active)
- IC50 (Cysteine protease ATG4B): 11.5 µM (active)

Compound: CC1=Nc2ccccc2/C1=C\c1nc(-c2ccccc2)oc1O
- IC50 [1]: > 100 µM (inactive)
- IC50 (Prothrombin): 7.22 µM (active)
- IC50 [2]: 4.18 µM (active)

Compound: CC(C)C(NC(=O)OCc1ccccc1)C(=O)OCC(=O)N1CCCCC1 (stereo unspecified)
- AC50 (A-375 [3]): > 35 µM (active)
- AC50 (A-375 [4]): > 35 µM (active)

Compound: CC(C)Cn1c(N)c(C(=O)COC(=O)/C=C/c2ccccc2)c(=O)n(C)c1=O
- EC50 (cells [5]): > 29.9 µM (inactive)
- IC50 (Galanin receptor type 3): > 29.9 µM (inactive)

Compound: CC[C@@]1(C(=O)OC)N[C@H](CN(C)C(=O)c2ccc(C(C)(C)C)cc2)[C@@H]2C(=O)N(Cc3ccccc3)C(=O)[C@@H]21
- AC50 [6]: 10.1 µM (active)
- AC50 [7]: 8.17 µM (active)
- AC50 [8]: 18.3 µM (active)
- AC50 [9]: 6.06 µM (active)

Compound: O=C1C=C(c2cccc(Cl)c2O)C[C@@H](c2ccc(Cl)cc2)C1
- IC50 [10]: 1.15 µM (active)
- IC50 [11]: 2.66 µM (active)

Compound: c1cc(Nc2cccc3nccnc23)c2nccnc2c1
- CC50 [12]: 31.7 µM (active)
- EC50 [13]: > 99 µM (inactive)
- EC50 [14]: > 99 µM (inactive)
- IC50 [10]: 24.5 µM (inactive)
- IC50 [11]: 25.6 µM (inactive)

Compound: C=C(C)Cn1c(SCC(=O)N/N=C/c2c(O)ccc3ccccc23)nc2ccccc2c1=O
- IC50 (Phospholipase A2): 7.98 µM (active)
- IC50 (Cysteine protease ATG4B): 13.3 µM (active)
- EC50 [15]: 19.5 µM (active)
- EC50 [16]: 16.6 µM (active)
- AC50 [17]: 3.05 µM (active)

Compound: Cc1cc(/C=C(/C#N)c2nc3ccccc3[nH]2)c(C)n1-c1ccccc1C(=O)O
- IC50 [1]: > 100 µM (inactive)
- IC50 (Prothrombin): 25.5 µM (active)
- EC50 [18]: > 300 µM (not active)
- IC50 [2]: 26.2 µM (active)
- EC50 [19]: > 300 µM (not active)

Compound: O=C(CSc1nc2ccccc2c(=O)n1-c1ccc(Cl)cc1)N/N=C/C=C/c1ccccc1[N+](=O)[O-]
- IC50 (Phospholipase A2): 1.18 µM (active)
- IC50 (Cysteine protease ATG4B): 8.92 µM (active)

Compound: CCCc1ccc(OC(=O)c2cccs2)cc1
- IC50 (Phospholipase A2): 10.2 µM (active)
- IC50 (Cysteine protease ATG4B): 10.7 µM (active)

Compound: CC(C)(C)c1cc([N+](=O)[O-])cc(C(C)(C)C)c1O
- EC50 (BJ [20]): > 75 µM (inconclusive)
- EC50 [21]: 22 µM (active)
- EC50 (BJ [22]): > 150 µM (not active)
- AC50 (INS1): 4.45 µM (active)
- EC50 (cells [5]): > 29.9 µM (inactive)
- EC50 (BJ [23]): > 150 µM (inconclusive)
- IC50 (Galanin receptor type 3): 2 µM (active)

Compound: CCOC(=O)C1=C(COc2ccccc2)NC(=O)NC1c1ccc(Cl)cc1 (stereo unspecified)
- IC50 [24]: > 66.6 µM (inactive)
- IC50 [25]: 15.7 µM (active)

Compound: O=C(N/N=C/C=C/c1ccccc1)c1ccccn1
- IC50 (cells [26]): 11.2 µM (active)
- AC50 (A-375 [3]): > 35 µM (active)
- AC50 (A-375 [4]): > 35 µM (active)
